Measured values as given in US20240270762A1, “PENICILLIN-BINDING PROTEIN INHIBITORS” (priority 2021, published 2024).
In brackets after ≈: the same amount, converted by molar mass. Read-outs that look alike come from different tables or passages of the source.

Tests used:
A. baumannii PBP2 = A. baumannii PBP2 (Acinetobacter baumannii, UniProt D0C8Z9); assay: Bocillin-FL competition binding via gel filtration, A. baumannii PBP2
Method in brief: (§1)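 Enzyme was pre-incubated with rising inhibitor concentrations, then Bocillin-FL was added and incubated 15 minutes more. Bound probe was separated by gel filtration and fluorescence read. EC50 came from fitting fraction of PBP labelled versus inhibitor concentration to a Hill equation with ymin, ymax and n.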

P. aeruginosa ATCC 27853 = assay: microbe, parasite or virus in culture; type: cell-based; conditions: Pseudomonas aeruginosa, ATCC27853, read-out: Minimum inhibitory concentration, P. aeruginosa ATCC 27853
A. baumannii ATCC 19606 = assay: microbe, parasite or virus in culture; type: cell-based; conditions: Acinetobacter baumannii, ATCC19606, read-out: MIC, A. baumannii ATCC 19606
P. aeruginosa ATCC 35151 = assay: microbe, parasite or virus in culture; type: cell-based; conditions: Pseudomonas aeruginosa, ATCC35151, read-out: Minimum inhibitory concentration, P. aeruginosa ATCC 35151
[1] = system: P. aeruginosa (ΔmexAB-oprM); assay: Broth microdilution MIC in iron-depleted CAMHB (IDM); type: cell-based; conditions: Pseudomonas aeruginosa; iron-depleted CAMHB (IDM); […]; read-out: Minimum inhibitory concentration, P. aeruginosa ΔmexAB-oprM
P. aeruginosa CDC-0054 = assay: microbe, parasite or virus in culture; type: cell-based; conditions: Pseudomonas aeruginosa, CDC0054, read-out: Minimum inhibitory concentration, P. aeruginosa CDC-0054
A. baumannii CDC-0045 = assay: microbe, parasite or virus in culture; type: cell-based; conditions: Acinetobacter baumannii, CDC0045, read-out: MIC, A. baumannii CDC-0045
A. baumannii CDC-0083 = assay: microbe, parasite or virus in culture; type: cell-based; conditions: Acinetobacter baumannii, CDC0083, read-out: MIC, A. baumannii CDC-0083
[2] = system: B. thailandensis ATCC 700388; assay: microbe, parasite or virus in culture; type: cell-based; conditions: Burkholderia thailandensis, ATCC700388, read-out: Minimum inhibitory concentration (MIC), B. thailandensis ATCC 700388
P. aeruginosa CDC-0110 = assay: microbe, parasite or virus in culture; type: cell-based; conditions: Pseudomonas aeruginosa, CDC0110, read-out: Minimum inhibitory concentration, P. aeruginosa CDC-0110
N. gonorrhoeae MS11 = assay: Liquid broth MIC in Fastidious broth; conditions: Neisseria gonorrhoeae
N. gonorrhoeae CDC-0197 = assay: Liquid broth MIC in Fastidious broth; conditions: Neisseria gonorrhoeae
[3] = system: B. humptydooensis ATCC BAA-2767; assay: microbe, parasite or virus in culture; type: cell-based; conditions: Burkholderia humptydooensis, ATCCBAA2767, read-out: Minimum inhibitory concentration (MIC), B. humptydooensis ATCC BAA-2767
A. baumannii PBP1a = biological target: T1, A. baumannii PBP1a (Acinetobacter baumannii, UniProt A0ABX6CK30); assay: Bocillin-FL competition binding via gel filtration, A. baumannii PBP1a; conditions: competition binding assay using Bocillin-FL via gel filtration; read-out: A. baumannii PBP1a Potency
T1 sequence (A0ABX6CK30 1-851): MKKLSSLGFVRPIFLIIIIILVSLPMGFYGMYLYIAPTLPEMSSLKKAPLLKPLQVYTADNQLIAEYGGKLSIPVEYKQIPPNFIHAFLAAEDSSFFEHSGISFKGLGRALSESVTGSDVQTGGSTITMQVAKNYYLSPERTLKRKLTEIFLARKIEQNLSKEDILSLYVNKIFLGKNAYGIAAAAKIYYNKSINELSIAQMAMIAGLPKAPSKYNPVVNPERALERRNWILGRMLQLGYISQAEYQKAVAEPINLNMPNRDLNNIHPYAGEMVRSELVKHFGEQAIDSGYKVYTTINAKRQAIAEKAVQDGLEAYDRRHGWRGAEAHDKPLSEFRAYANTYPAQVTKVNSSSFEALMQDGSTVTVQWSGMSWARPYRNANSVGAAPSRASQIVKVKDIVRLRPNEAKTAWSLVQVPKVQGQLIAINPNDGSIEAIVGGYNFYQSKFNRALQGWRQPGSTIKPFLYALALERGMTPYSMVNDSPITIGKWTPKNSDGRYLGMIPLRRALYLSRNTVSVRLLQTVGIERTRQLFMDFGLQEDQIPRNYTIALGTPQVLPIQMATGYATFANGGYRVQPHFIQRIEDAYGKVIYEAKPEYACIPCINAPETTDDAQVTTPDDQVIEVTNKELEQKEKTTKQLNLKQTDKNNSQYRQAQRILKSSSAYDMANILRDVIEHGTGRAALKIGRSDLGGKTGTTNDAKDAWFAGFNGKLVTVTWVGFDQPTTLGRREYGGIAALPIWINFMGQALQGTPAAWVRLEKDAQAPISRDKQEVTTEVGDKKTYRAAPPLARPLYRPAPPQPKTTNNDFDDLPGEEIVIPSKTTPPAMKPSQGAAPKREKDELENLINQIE
Method in brief: as §1

[4] = MS11, read-out: Minimum Inhibitory Concentration, MS11
[5] = CDC0197, read-out: Minimum Inhibitory Concentration, CDC-0197

Chain of A. baumannii PBP2 (D0C8Z9 whole entry): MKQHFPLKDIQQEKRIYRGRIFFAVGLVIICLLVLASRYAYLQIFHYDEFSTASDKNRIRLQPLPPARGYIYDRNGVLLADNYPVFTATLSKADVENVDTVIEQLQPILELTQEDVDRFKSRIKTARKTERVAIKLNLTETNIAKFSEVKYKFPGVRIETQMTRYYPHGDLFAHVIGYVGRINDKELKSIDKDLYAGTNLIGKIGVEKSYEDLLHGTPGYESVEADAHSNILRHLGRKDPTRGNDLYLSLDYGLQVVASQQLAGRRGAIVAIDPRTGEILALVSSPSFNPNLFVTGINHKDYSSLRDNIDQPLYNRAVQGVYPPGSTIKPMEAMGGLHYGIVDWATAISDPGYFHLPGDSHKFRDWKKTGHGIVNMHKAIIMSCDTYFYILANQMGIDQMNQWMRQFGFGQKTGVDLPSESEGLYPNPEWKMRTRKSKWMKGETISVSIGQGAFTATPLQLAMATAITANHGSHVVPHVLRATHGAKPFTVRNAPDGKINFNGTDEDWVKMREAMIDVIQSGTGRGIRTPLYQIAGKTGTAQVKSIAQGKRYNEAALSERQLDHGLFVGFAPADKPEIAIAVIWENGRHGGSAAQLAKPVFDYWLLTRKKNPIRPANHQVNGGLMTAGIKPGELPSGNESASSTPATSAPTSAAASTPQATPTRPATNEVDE

Row | Compound | EC50 (A. baumannii PBP2) [µM] | MIC (P. aeruginosa ATCC 27853) [mg/L] | MIC (A. baumannii ATCC 19606) [mg/L] | MIC (P. aeruginosa ATCC 35151) [mg/L] | MIC [1] [mg/L] | MIC (P. aeruginosa CDC-0054) [mg/L] | MIC (A. baumannii CDC-0045) [mg/L] | MIC (A. baumannii CDC-0083) [mg/L] | MIC [2] [mg/L] | MIC (P. aeruginosa CDC-0110) [mg/L] | MIC (N. gonorrhoeae MS11; [4]) [mg/L] | MIC (N. gonorrhoeae CDC-0197; [5]) [mg/L] | MIC [3] [mg/L] | EC50 (A. baumannii PBP1a) [µM] | MIC (N. gonorrhoeae MS11; MS11, read-out: Minimum Inhibitory Concentration (MIC), N. gonorrhoeae MS11) [mg/L] | MIC (N. gonorrhoeae CDC-0197; CDC0197, read-out: Minimum Inhibitory Concentration (MIC), N. gonorrhoeae CDC-0197) [mg/L]
1 | O=C(NCCS(=O)(=O)N1CCN(C(=O)NC(C(=O)N[C@H]2Cc3ccc(F)c(C(=O)O)c3OB2O)c2cc(F)c(O)c(O)c2Cl)C1=O)c1ccccc1 (stereo partly drawn) [Example 260, (3R)-3-(2-(3-((2-benzamidoethyl)sulfonyl)-2-oxoimidazolidine-1-carboxamido)-2-(2-chloro-5-fluoro-3,4-dihydroxyphenyl)acetamido)-7-fluoro-2-hydroxy-3,4-dihydro-2H-benzo[e][1,2]oxaborinine-8-carboxylic acid] | 10 to 50 | 2 to 4 (≈ 2.61 to 5.22 µM) | < 1 | < 1 | < 1 | 2 to 4 (≈ 2.61 to 5.22 µM) | < 1 | < 1 | > 128 | 2 to 4 (≈ 2.61 to 5.22 µM) | 16 to 32 (≈ 20.9 to 41.8 µM) | 16 to 32 (≈ 20.9 to 41.8 µM) | – | – | – | –
2 | O=C(NCCCS(=O)(=O)N1CCN(C(=O)NC(C(=O)N[C@H]2Cc3ccc(F)c(C(=O)O)c3OB2O)c2cc(F)c(O)c(O)c2Cl)C1=O)c1cccnc1 (stereo partly drawn) [Example 273, (3R)-3-(2-(2-chloro-5-fluoro-3,4-dihydroxyphenyl)-2-(3-((3-(nicotinamido)propyl)sulfonyl)-2-oxoimidazolidine-1-carboxamido)acetamido)-7-fluoro-2-hydroxy-3,4-dihydro-2H-benzo[e][1,2]oxaborinine-8-carboxylic acid] | 10 to 50 | 2 to 4 (≈ 2.56 to 5.12 µM) | < 1 | < 1 | < 1 | 2 to 4 (≈ 2.56 to 5.12 µM) | < 1 | < 1 | 2 to 4 (≈ 2.56 to 5.12 µM) | < 1 | 16 to 32 (≈ 20.5 to 41 µM) | 16 to 32 (≈ 20.5 to 41 µM) | 2 to 4 (≈ 2.56 to 5.12 µM) | – | – | –
3 | O=C(NCCN1CCN(C(=O)NC(C(=O)N[C@H]2Cc3ccc(F)c(C(=O)O)c3OB2O)c2cc(F)c(O)c(O)c2Cl)C(=O)C1=O)c1ccccc1 (stereo partly drawn) [Example 207, (3R)-3-(2-(4-(2-benzamidoethyl)-2,3-dioxopiperazine-1-carboxamido)-2-(2-chloro-5-fluoro-3,4-dihydroxyphenyl)acetamido)-7-fluoro-2-hydroxy-3,4-dihydro-2H-benzo[e][1,2]oxaborinine-8-carboxylic acid] | – | 2 to 4 (≈ 2.74 to 5.48 µM) | 2 to 4 (≈ 2.74 to 5.48 µM) | < 1 | < 1 | 2 to 4 (≈ 2.74 to 5.48 µM) | 2 to 4 (≈ 2.74 to 5.48 µM) | 2 to 4 (≈ 2.74 to 5.48 µM) | 8 to 16 (≈ 11 to 21.9 µM) | < 1 | – | – | < 1 | 10 to 50 | 16 to 32 (≈ 21.9 to 43.8 µM) | 16 to 32 (≈ 21.9 to 43.8 µM)
4 | O=C(NCCCN1CCN(C(=O)N[C@@H](C(=O)N[C@H]2Cc3ccc(F)c(C(=O)O)c3OB2O)c2cc(F)c(O)c(O)c2Cl)C1=O)c1ccccc1 [Example 253, (R)-3-((R)-2-(3-(3-benzamidopropyl)-2-oxoimidazolidine-1-carboxamido)-2-(2-chloro-5-fluoro-3,4-dihydroxyphenyl)acetamido)-7-fluoro-2-hydroxy-3,4-dihydro-2H-benzo[e][1,2]oxaborinine-8-carboxylic acid] | < 10 | 2 to 4 (≈ 2.79 to 5.59 µM) | < 1 | < 1 | < 1 | 8 to 16 (≈ 11.2 to 22.4 µM) | < 1 | < 1 | 2 to 4 (≈ 2.79 to 5.59 µM) | 2 to 4 (≈ 2.79 to 5.59 µM) | 16 to 32 (≈ 22.4 to 44.7 µM) | > 64 | – | 10 to 50 | – | –
